# Results from patent US11661582B2, “Method for producing sinoatrial node cells (pacemaker cells) from stem cells, and use of the produced sinoatrial node cells” (UNIVERSITAET ROSTOCK, priority 2013, dated 2023).
# Entries after “also recorded” stand apart in the source; their conditions may differ.
# What was measured:
# [1] = system: sinoatrial node cells produced in vitro from stem cells; experiment: Beat frequency of stem-cell-derived sinoatrial node cells contacted with pharmaceuticals; format: cell-based, murine; settings: sinoatrial node cells of the invention contacted with pharmaceuticals
# [2] = system: isolated Tbx3-programmed cells (SA/AV pacemaker-type); experiment: Single-cell patch-clamp, action potential rate of Tbx3-programmed cells; format: cell-based, murine; settings: 37° C.
# Procedure: For the further validation of the functionality and determination of the proportions of the subtypes of the cardiomyocytes, the electrophysiological properties were analyzed by the single-cell patch-clamp technique and the measurement of the density of the HCN (or funny) channels on day 18 of the differentiation as described [14] [16].
# Spontaneous action potentials and currents of contracting cardiomyocytes were recorded at 37° C. in the perforated patch configuration using a MultiClamp 700B amplifier and pClamp10 software (Molecular Devices, Union City, USA). The offline data analysis was conducted with Clampfit software (Molecular Devices, Union City, USA) or by means of Origin 6.0 software (Microcal, Northampton, USA). […] The extracellular (bath) solution contained: 140 mM NaCl, 5.4 mM KCl, 1 mM MgCl2, 1.8 mM CaCl2, 5 mM HEPES, 5.5 mM glucose; the pH was adjusted to 7.4 with NaOH. For better recording of the If, in some cases, 2 mM BaCl2 and 0.3 mM CdCl2 were added to the bath solution in order to block IKl and ICa. If was measured by stepwise change proceeding from a hold potential of −40 mV to test potentials between −130 mV and +20 mV. The current amplitude after 3 seconds during the −130 mV pulse was divided by the cell capacitance in order to determine the current (If) density. To determine the If activation kinetics, the time constant of the activation (τ) was obtained by fitting the current trace of the −130 mV step after the initial delay with the sum of two exponential functions y=A1e1 ^−x/τ)+A2e2^(−x/τ), where τ1 and τ2 are fast and slow time constants for the activation; τ1 is accordingly referred to as τ, since the slow component (A2) of the HCN channel activation is generally <10% of the current amplitude. Isoproterenol or carbachol (Sigma, Taufkirchen, Germany) was dissolved directly in the bath solution on the day of the experiment and the cells were administered by means of a rapid exchange superfusion system. APs were recorded with a 10 kHz sampling rate. The analyses were conducted on the original traces. […]
# [3] = system: cells originating from iSAB; experiment: Single-cell patch-clamp, action potential rate of cells originating from iSAB; format: cell-based, murine; settings: for AP rate: patch-clamp, 37° C.
# Procedure: Spontaneous action potentials and currents of contracting cardiomyocytes were recorded at 37° C. in the perforated patch configuration using a MultiClamp 700B amplifier and pClamp10 software (Molecular Devices, Union City, USA). The offline data analysis was conducted with Clampfit software (Molecular Devices, Union City, USA) or by means of Origin 6.0 software (Microcal, Northampton, USA). […] The extracellular (bath) solution contained: 140 mM NaCl, 5.4 mM KCl, 1 mM MgCl2, 1.8 mM CaCl2, 5 mM HEPES, 5.5 mM glucose; the pH was adjusted to 7.4 with NaOH. For better recording of the If, in some cases, 2 mM BaCl2 and 0.3 mM CdCl2 were added to the bath solution in order to block IKl and ICa. If was measured by stepwise change proceeding from a hold potential of −40 mV to test potentials between −130 mV and +20 mV. The current amplitude after 3 seconds during the −130 mV pulse was divided by the cell capacitance in order to determine the current (If) density. To determine the If activation kinetics, the time constant of the activation (τ) was obtained by fitting the current trace of the −130 mV step after the initial delay with the sum of two exponential functions y=A1e1 ^−x/τ)+A2e2^(−x/τ), where τ1 and τ2 are fast and slow time constants for the activation; τ1 is accordingly referred to as τ, since the slow component (A2) of the HCN channel activation is generally <10% of the current amplitude. Isoproterenol or carbachol (Sigma, Taufkirchen, Germany) was dissolved directly in the bath solution on the day of the experiment and the cells were administered by means of a rapid exchange superfusion system. APs were recorded with a 10 kHz sampling rate. The analyses were conducted on the original traces. The inclination/slope of the linear fit of the distance from the MDP to the potential threshold is the DDR; the AP duration is the time from the threshold potential to the MDP.
# [4] = system: cells derived from iSABs (Myh6-TBX3 cells); experiment: Ca2+ imaging (Fluo-4) of spontaneous Ca2+ transients and SR Ca2+ stores in iSAB-derived cells; format: cell-based, murine; settings: for diastolic Ca2+ level: caffeine 10 mM, thapsigargin 2 μM; for frequency of spontaneous Ca2+ transients: 5 μM ZD 7288, 1 μM mibefradil, 1 μM nifedipine, 28° C.
# cells derived from aCaBs = experiment: Ca2+ imaging (Fluo-4) of SR Ca2+ stores in aCaB-derived control cells; format: cell-based, murine
# murine ES cells = settings: literature [9]; cited from earlier work
smiles,measurement,setting,value
C[N+](C)(C)CCOC(N)=O [carbachol],beat frequency,[1],significant reduction in beat frequency
same,AP rate,[2],slowed
same,AP rate,[3],slowed
C/C=C(/C)C(=O)O[C@H]1C(C)=C2[C@H]([C@@H]1OC(=O)CCCCCCC)[C@@](C)(OC(C)=O)C[C@H](OC(=O)CCC)[C@@]1(O)[C@H]2OC(=O)[C@@]1(C)O [thapsigargin],rate of intracellular Ca2+ accumulation with SERCA inhibition,"[4]; Na+/Ca2+ exchanger blocked plus SERCA inhibition, vs. no SERCA inhibition, iSAB-derived cells",fourfold increase
same,diastolic Ca2+ level,[4]; iSAB-derived cells,increase in the Ca^2+ diastolic level; also recorded: increased diastolic Ca^2+ levels
same,reduction of caffeine Ca2+ peak (factor),"[4]; caffeine added 5 min after incubation with thapsigargin, iSAB-derived cells",4
same,caffeine Ca2+ peak with and without SERCA inhibition,cells derived from aCaBs; control cells (aCaB-derived),remained identical
same,intracellular Ca2+ accumulation with SERCA inhibition,cells derived from aCaBs; control cells (aCaB-derived),impossible to detect any intracellular Ca^2+ accumulation
CCn1c(=O)[nH]c2ccccc21 [EBIO],formation of node cells from murine ES cells,murine ES cells,enhances the formation of node cells
CCN(c1ccccc1)c1cc(=NC)n(C)c(C)n1.Cl [ZD 7288],beat frequency,[1],significant reduction in beat frequency
same,frequency of spontaneous Ca2+ transients,[4],reduced the frequency of the Ca^2+ transients
same,frequency of spontaneous Ca2+ transients,[4]; listed as ZD7288,decrease significantly
CC(C)NCC(O)c1ccc(O)c(O)c1 (stereo not drawn) [isoproterenol],beat frequency,[1],increase in beat frequency
same,AP rate,[2],acceleration in the AP rate
same,AP rate,[2]; listed as isoprotenerol,accelerated
same,AP rate,[3],accelerated
same,beat frequencies in response to isoprotenerol,[3]; range up to,up to 560 bpm
COCC(=O)O[C@]1(CCN(C)CCCc2nc3ccccc3[nH]2)CCc2cc(F)ccc2[C@@H]1C(C)C [mibefradil],frequency of spontaneous Ca2+ transients,[4],moderate decrease
Cn1c(=O)c2c(ncn2C)n(C)c1=O [caffeine],"caffeine-induced Ca2+ peak, sarcolemmal Ca2+ influx blocked","[4]; blockage of Na+/Ca2+ exchanger and Ca2+ channels, iSAB-derived cells compared to aCaB-derived cells",four times greater; also recorded: large caffeine peak
same,diastolic Ca2+ level,[4]; iSAB-derived cells,increased the diastolic Ca^2+ level
same,caffeine-induced effect on SR-Ca2+ release,"cells derived from aCaBs; caffeine 10 mM, aCaB-derived cells",No similar caffeine-induced effect
